Assay results from US20220344599A1, “METAL COMPLEX AND ELECTRON TRANSPORTING MATERIAL COMPRISING SAME” (DYDEN CORPORATION, priority 2019, published 2022).

Assay: dissolution test of metal complexes in protic polar solvents
Format: physicochemical
Parameters: key to dissolution test, 7.5 g/L: a case where an undissolved remnant was present was evaluated as “X”; a case where a slight undissolved remnant was present was evaluated as “Δ”; a case of complete dissolution was evaluated as “ο”
Protocol: The metal complexes obtained in [1] were each dissolved in a protic polar solvent shown in Table 1 to produce a liquid material for constructing the electron transport layer of an organic electroluminescent element.
For example, Metal complex L101-Cs was dissolved in 1-heptanol to prepare alcohol solutions of 7.5 g/L to 15 g/L.
In Table 1, a case where an undissolved remnant was present was evaluated as “X”, a case where a slight undissolved remnant was present was evaluated as “Δ”, and a case of complete dissolution was evaluated as “ο”.

dissolution test, 7.5 g/L (1-Heptanol) | dissolution test, 15 g/L (1-Heptanol) | Structure (SMILES) | further results
○ | – | Oc1cccc2c1nc(-c1ccccc1)n2-c1ccc2ccc3cccnc3c2n1 [L102-Cs] | –
Δ | – | Oc1cccc2oc3cc(-c4ccc5ccc6cccnc6c5n4)cnc3c12 [L301-Cs] | dissolution test, 5 g/L (1-Heptanol, 5 g/L): ○; dissolution test, 7.5 g/L (2-Methoxyethanol): ○; dissolution test, 15 g/L (2-Methoxyethanol): ○
○ | ○ | O=P(c1ccccc1)(c1ccc2ccc3cccnc3c2n1)c1ccc(O)c2c1oc1cccnc12 (stereo not drawn) [L302-Cs] | –
○ | ○ | O=P(c1ccccc1)(c1ccc2ccc3cccnc3c2n1)c1ccc(O)c2c1oc1cccnc12 (stereo not drawn) [L302-Rb] | –
○ | – | O=P(c1ccccc1)(c1ccccc1)c1ccc2ccc3ccc(-c4ccc(O)c5c4oc4cccnc45)nc3c2n1 [L303-Cs] | –

Continued, compound first:

Structure (SMILES) | dissolution test, 7.5 g/L (1-Heptanol) | dissolution test, 15 g/L (1-Heptanol) | further results
Oc1cccc2c1nc(-c1ccccc1)n2-c1cccc(-c2ccc3ccc4cccnc4c3n2)c1 [L101-Cs] | ○ | – | –
Oc1cccc2c1nc(-c1ccccc1)n2-c1cccc(-c2ccc3ccc4cccnc4c3n2)c1 [L101-Rb] | ○ | – | –
Oc1ccc(-c2ccc3ccc4cccnc4c3n2)c2c1nc(-c1ccccc1)n2-c1ccccc1 [L103-Cs] | ○ | – | –
O=P(c1ccccc1)(c1ccc2ccc3cccnc3c2n1)c1ccc(O)c2c1oc1cccnc12 (stereo not drawn) [L302-Li] | ○ | ○ | –
